Several values for one entry are separate records, joined by “and”; a condition that tells them apart may be missing. Identical values can stand only once. Activity calls are given as the source filed them.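 The calls were made as follows: active = fitted curve reaches a 40% rise in fluorescent cells at or below the top valid dose; inactive = opposite-direction effect, or the rest.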
test system: mTEFS fibroblasts autofluorescence, GFP-channel imaging, 3 days; assay: compound fluorescence in GFP channel, mTEFS cells – imaging, mTEFS fibroblasts, cherry-pick, artefact control for X-chromosome reactivation project, dose response (AID 743396); conditions: cells pretreated with 5-aza-dC

SMILES | AC40
O=C(NC1CCCC1)c1cccc2c1C(=O)c1ccc(/C=C/c3ccccc3)cc1S2(=O)=O | > 19.5 µM (inactive)
Cc1cc(C)cc(NC(=O)/C=C/c2ccc([N+](=O)[O-])s2)c1 | 9.04 µM
C[C@@H]1CCCCO[C@H](CN(C)C(=O)Nc2ccc(C(F)(F)F)cc2)[C@H](C)CN([C@H](C)CO)C(=O)c2cc(NC(=O)CCC(F)(F)F)ccc2O1 | 17.4 µM
Cc1cc(C)c2cc3c(N)c(C(=O)Nc4c(C)[nH]c(=O)[nH]c4=O)sc3nc2c1 | > 19.5 µM (inactive)
Cc1ccc(Cl)c2c(N=Nc3ccccc3)c(O)[nH]c12 | > 19.5 µM (inactive)
COc1cc(N2CCCC2)c(OC)cc1/C=C1/NC(=S)NC1=O | > 19.5 µM (inactive)
Cc1ccc2c(c1)c(/C=C/c1cc[n+](C)cc1)c(C)n2C | 10.1 µM
COc1cc2c3nnc(-c4ccc(F)cc4)c-3cn(Cc3ccccc3F)c2cc1OC | 2.46 µM
Cc1ccc2cc3c(N)c(C(=O)Nc4c(C)[nH]c(=O)[nH]c4=O)sc3nc2c1 | > 19.5 µM (inactive)
O=C(N/N=C\c1c(O)ccc2ccccc12)c1ccc(S(=O)(=O)N2CCCCC2)cc1 | 19.2 µM
C=CCN1C(=O)[C@@H]2Cc3c([nH]c4ccccc34)C(c3cc(OC)c(OC)c(OC)c3)N2C1=S (some centres not stated) | 15.5 µM
COc1cc2c3nnc(-c4ccccc4)c-3cn(Cc3ccccc3F)c2cc1OC | 4.02 µM
CCN1/C(=C/c2ccc3cc(C)ccc3[n+]2CC)Sc2cc(C)ccc21 | 6.21 µM
Cc1ccc(-c2cn3nc(-c4ccccc4)c(-c4ccccc4)nc3n2)cc1 | 7.88 µM
Cn1cc(C2=C(c3ccc(Cl)cc3Cl)C(=O)NC2=O)c2ccccc21 | 12.7 µM
CCCCCC[n+]1ccccc1/C=C/c1ccc(N(C)C)cc1 | > 19.5 µM (inactive)
CC(O)CN(CC(C)O)c1ccc2c(c1)Cc1cc([N+](=O)[O-])ccc1-2 (configuration not stated) | > 19.5 µM (inactive)
N#C/C(=C/c1ccc(-c2ccccc2)o1)c1nc(-c2cccs2)cs1 | 7.35 µM
N#C/C(=C\c1ccc([N+](=O)[O-])o1)c1nc2ccccc2[nH]1 | > 19.5 µM (inactive)
COC1C(CO)OC(n2c3c(Cl)cccc3c3c4c(c5c6cccc(Cl)c6[nH]c5c32)C(=O)NC4=O)C(O)C1O (configuration not stated) | > 19.5 µM (inactive)
COc1ccc(/C=C/C(=O)c2ccc([N+](=O)[O-])o2)cc1OC | > 19.5 µM (inactive)
Cc1cc2oc3ccc(NCCCn4ccnc4)cc3c(=O)c2cc1C | 19.2 µM
CC(=NNc1nc2ccccc2o1)c1cc2ccccc2cn1 | 8.99 µM
O=[N+]([O-])c1ccc(N/N=C/c2sc(N3CCOCC3)nc2-c2ccccc2)c(S(=O)(=O)Nc2ccc(Cl)cc2)c1 | > 6.8 µM (inactive)

SMILES | AC40
CC(C)(C)NC(=S)N/N=C\c1ccc(-c2ccc([N+](=O)[O-])cc2)o1 | 7.84 µM
Oc1ccc(/C=N/Nc2ccnc3cc(Cl)ccc23)c(O)c1 | > 19.5 µM (inactive)
CCN1/C(=C/c2ccc3cc(C)ccc3[n+]2CC)Sc2ccccc21 | 0.395 µM
CCCCNc1ccc2c3c(cccc13)C(=O)N(CCCC)C2=O | 4.11 µM
N#C/C(=C\c1ccc(N2CCCCC2)o1)C(=O)Nc1cccc(Br)c1 | 0.919 µM
Cc1cccc(NC(=O)/C=C/c2ccc([N+](=O)[O-])s2)c1 | 3.68 µM
C[n+]1c2cc(N)ccc2cc2ccc(N)cc21 | 0.522 µM and 0.378 µM
COC1=CC(=O)c2c(ccc3ncnc(N)c23)C1=O | > 19.5 µM (inactive)
CN(C)c1ccc(/C=C(/C#N)C(=O)NCc2ccccc2)o1 | 14.7 µM
N#C/C(=C/c1ccc(-c2ccc(S(N)(=O)=O)cc2)o1)c1nc2ccccc2s1 | 2.25 µM
Cc1nonc1NC(=O)CSc1nc2c(C)cccc2cc1C#N | 9.02 µM
COc1ccccc1-[n+]1c(C)cc(/C=C2\Sc3ccccc3N2C)cc1C | 3.52 µM
Cc1ccccc1-c1ccc(C2[C@@H]3CN(Cc4cocn4)C[C@H]2N3)cc1 (some centres not stated) | > 2.35 µM (inactive)
C/C(CC(=O)Nc1ccc(C)c(Cl)c1)=N\NC(=O)Cc1ccccc1 | 18.1 µM
CCC(CO)[n+]1c(C)cc(/C=C2\Sc3ccccc3N2Cc2ccccc2)cc1C (configuration not stated) | 7.28 µM
COc1ccccc1N1N=C(c2ccc([N+](=O)[O-])cc2)CC1c1ccccc1 (configuration not stated) | 5.77 µM
CC(C)N1CCc2c(sc(NC(=O)c3ccc4ccccc4c3)c2C(N)=O)C1 | 10.6 µM
O=C1c2ccccc2C(=O)C1c1ccccc1 | > 19.5 µM (inactive)
CCN1CCc2c(sc(NC(=O)c3ccc4ccccc4c3)c2C(N)=O)C1 | 3.45 µM
COc1ccc2c(n1)Sc1nc3ccccc3nc1N2 | 12.5 µM
O=[N+]([O-])c1ccc(/C=C/C2=NN(c3ccccc3)C(c3ccco3)C2)cc1 (configuration not stated) | 3.37 µM
N#Cc1c(-c2ccccc2F)cc(C2CC2)nc1SCC(=O)c1cccs1 | 9.82 µM
CC(=O)Nc1cc2c3c(cccc3c1)-c1ccccc1-2 | 2.19 µM

— PubChem BioAssay AID743396 (Broad Institute, 2014)
